Results taken from patent US20230263822A1, “MODULATION OF FACTOR 11 EXPRESSION” (Ionis Pharmaceuticals, Inc., priority 2008, published 2023).
Strand notation (5' to 3'): a small letter for the sugar, then the base; units joined by * are phosphorothioate-linked, units joined directly phosphodiester-linked; [ ] holds rarer units or linkages, { } end groups; capitals alone tell only the bases. e = 2'-O-(2-methoxyethyl) (MOE); [5mC] = 5-methylcytosine; d = 2'-deoxy (DNA)

Experiments:
[1] = parameters: species or system Sprague-Dawley rats; settings: rat, in vivo, sc, 20 mg/kg
Experimental: The concentration of the full-length oligonucleotide as well as the total oligonucleotide concentration (including the degraded form) was measured. The method used is a modification of previously published methods (Leeds et al., 1996; Geary et al., 1999) which consist of a phenol-chloroform (liquid-liquid) extraction followed by a solid phase extraction. An internal standard (ISIS 355868, a 27-mer 2′-O-methoxyethyl modified phosphorothioate oligonucleotide, […], designated herein as SEQ ID NO: 270) was added prior to extraction. […] The results are presented in Tables 91 and 92, expressed as μg/g liver or kidney tissue. Half-lives were then calculated using WinNonlin software ([…]).

[2] = Tolerability in Sprague-Dawley rats: body weight and organ weight (Example 44); type: in vivo; settings: 50 mg/kg s.c. twice per week for 6 weeks; for Change in Kidney weight / Change in Liver weight / Change in Spleen weight: end of study
[3] = Liver function, ALT, AST, bilirubin in cynomolgus monkeys (Example 45); type: in vivo; settings: plasma, escalating dose regimen
Experimental: Groups, each consisting of two male and three female monkeys, were injected subcutaneously with ISIS 416838, ISIS 416850, ISIS 416858, ISIS 416864, or ISIS 417002 in escalating doses. Antisense oligonucleotide was administered to the monkeys at 5 mg/kg three times per a week for week 1; 5 mg/kg twice per week for weeks 2 and 3; 10 mg/kg three times per week for week 4; 10 mg/kg twice per week for weeks 5 and 6; 25 mg/kg three times per week for week 7; and 25 mg/kg twice per week for weeks 8, 9, 10, 11, and 12. One control group, consisting of two male and three female monkeys, was injected subcutaneously with PBS according to the same dosing regimen. An additional experimental group, consisting of two male and three female monkeys, was injected subcutaneously with ISIS 416850 in a chronic, lower dose regimen. Antisense oligonucleotide was administered to the monkeys at 5 mg/kg three times per week for week 1; 5 mg/kg twice per week for week 2 and 3; 10 mg/kg three times per week for week 4; and 10 mg/kg twice per week for weeks 5 to 12. Body weights were measured weekly. Blood samples were collected 14 days and 5 days before the start of treatment and subsequently once per week for Factor 11 protein activity analysis in plasma, fibrinogen measurement, PT and aPTT measurements, bleeding times, and measurement of various hematologic factors. On day 85, the monkeys were euthanized by exsanguination while under deep anesthesia, and organs harvested for further analysis.
The ISIS oligonucleotide, ISIS 416850, given with the chronic dose regimen is distinguished from the other oligonucleotides with an asterisk (*).

[4] = Tolerability in CD1 mice: kidney function, BUN, creatinine (Example 33); settings: plasma, 50 mg/kg s.c. twice a week
Experimental: (§1) A control group of five mice was injected subcutaneously with PBS for 2 weeks. All experimental groups (i.e. ASO treated mice at 2, 4, 6 weeks) were compared to the control group (i.e. PBS, 2 weeks).
To evaluate the effect of ISIS oligonucleotides on kidney function, plasma concentrations of blood urea nitrogen (BUN) and creatinine were measured using an automated clinical chemistry analyzer (Hitachi Olympus AU400e, Melville, N.Y.).

[5] = Tolerability in CD1 mice: liver function, ALT, AST, bilirubin, albumin (Example 33); settings: plasma, 50 mg/kg s.c. twice a week
Experimental: as §1
To evaluate the effect of ISIS oligonucleotides on hepatic function, plasma concentrations of transaminases were measured using an automated clinical chemistry analyzer (Hitachi Olympus AU400e, Melville, N.Y.). […] Plasma levels of bilirubin and albumin were also measured using the same clinical chemistry analyzer and expressed in mg/dL.

## 413482 (antisense GGACGGCATTGGTGCACAGT; 5-10-5 MOE gapmer, further chemistry not given here) [compound 413482]
[1]
  Half-life of ISIS oligonucleotides in the liver and kidney: 20 days

## ISIS 449710: 3-8-3, 4-8-4, 2-10-2, 3-10-3 or 4-10-4 MOE microwalk gapmer (Table 46) (antisense e[5mC]*eA*e[5mC]*dA*dG*dT*dT*dT*d[5mC]*dT*dG*dG*d[5mC]*eA*eG*eG)
[2]
  body weight: 344 g
  Change in Kidney weight: +50%
  Change in Liver weight: +82%
  Change in Spleen weight: +302%

## ISIS 449709: 3-8-3, 4-8-4, 2-10-2, 3-10-3 or 4-10-4 MOE microwalk gapmer (Table 46) (antisense eG*e[5mC]*eA*e[5mC]*dA*dG*dT*dT*dT*d[5mC]*dT*dG*dG*d[5mC]*eA*eG*eG*e[5mC])
[2]
  body weight: 376 g
  Change in Kidney weight: +19%
  Change in Liver weight: +8%
  Change in Spleen weight: +231%

## 412223 (antisense ACAGTTTCTGGCAGGCCTCG; 5-10-5 MOE gapmer, further chemistry not given here) [compound 412223]
[1]
  Half-life of ISIS oligonucleotides in the liver and kidney: 22 days

## 416856 (antisense GGCATTGGTGCACAGTTTCT; 5-10-5 gapmer, further chemistry not given here) [compound 416856]
[1]
  Half-life of ISIS oligonucleotides in the liver and kidney: 19 days

## ISIS 449711: 3-8-3, 4-8-4, 2-10-2, 3-10-3 or 4-10-4 MOE microwalk gapmer (Table 46) (antisense eA*e[5mC]*dA*dG*dT*dT*dT*d[5mC]*dT*dG*dG*d[5mC]*eA*eG)
[2]
  body weight: 362 g
  Change in Kidney weight: +72%
  Change in Liver weight: +52%
  Change in Spleen weight: +327%

## 412224 (antisense GCATTGGTGCACAGTTTCTG; 5-10-5 MOE gapmer, further chemistry not given here) [compound 412224]
[1]
  Half-life of ISIS oligonucleotides in the liver and kidney: 17 days

## ISIS 449708: 3-8-3, 4-8-4, 2-10-2, 3-10-3 or 4-10-4 MOE microwalk gapmer (Table 46) (antisense eA*e[5mC]*eA*dG*dT*dT*dT*d[5mC]*dT*dG*dG*e[5mC]*eA*eG)
[2]
  body weight: 382 g
  Change in Kidney weight: +40%
  Change in Liver weight: +31%
  Change in Spleen weight: +259%

## ISIS 449707: 3-8-3, 4-8-4, 2-10-2, 3-10-3 or 4-10-4 MOE microwalk gapmer (Table 46) (antisense e[5mC]*eA*e[5mC]*eA*dG*dT*dT*dT*d[5mC]*dT*dG*dG*e[5mC]*eA*eG*eG)
[2]
  body weight: 352 g
  Change in Kidney weight: +80%
  Change in Liver weight: +41%
  Change in Spleen weight: +400%

## 412225 (antisense GCAGCGGACGGCATTGGTGC; 5-10-5 MOE gapmer, further chemistry not given here) [compound 412225]
[1]
  Half-life of ISIS oligonucleotides in the liver and kidney: 21 days

## ISIS 416864: MOE gapmer, nucleobases 1275 to 1318 of SEQ ID NO: 1 (Table 8) (antisense GGCAGCGGACGGCATTGGTG; MOE gapmer, wing and gap sizes not given here)
[3]; day 22
  ALT: 37 IU/L
  AST: 41 IU/L
  Bilirubin: 0.22 mg/dL
[3]; day 43
  ALT: 36 IU/L
  AST: 40 IU/L
  Bilirubin: 0.17 mg/dL
[3]; day 64
  ALT: 43 IU/L
  AST: 46 IU/L
  Bilirubin: 0.16 mg/dL
[3]; day 85
  ALT: 43 IU/L
  AST: 56 IU/L
  Bilirubin: 0.17 mg/dL
[3]; day −14
  ALT: 54 IU/L
  AST: 76 IU/L
  Bilirubin: 0.31 mg/dL
[4]; 2 weeks
  BUN: 22 mg/dL
  Creatinine: 0.11 mg/dL
[4]; 4 weeks
  BUN: 31 mg/dL
  Creatinine: 0.22 mg/dL
[4]; 6 weeks
  BUN: 28 mg/dL
  Creatinine: 0.16 mg/dL
[5]; 2 weeks
  ALT: 44 IU/L
  AST: 58 IU/L
  Albumin: 3.5
  Bilirubin: 0.40 mg/dL
[5]; 4 weeks
  ALT: 33 IU/L
  AST: 46 IU/L
  Albumin: 3.6
  Bilirubin: 0.26 mg/dL
[5]; 6 weeks
  ALT: 92 IU/L
  AST: 101 IU/L
  Albumin: 3.5
  Bilirubin: 0.22 mg/dL
